In patent US20240358842A1, “PROTEIN STABILIZING COMPOUNDS CONTAINING USP7 LIGANDS” (Stablix, Inc., priority 2021, published 2024) one finds Kd and IC50 data, which are given here for 34 compounds.

Like-named read-outs stand apart in the source and are kept apart here. Where only a bound is given, the exact number is not on record here.

By IC50 is commonly meant the concentration at which inhibition is half-maximal.

Test [1] has as its target T1, USP7 CD + UBL 1-5 (Homo sapiens, UniProt Q93009).
T1 construct: USP7 CD +
Description: Surface plasmon resonance assay (SPR). The class given is binding. The protocol:
The surface plasmon resonance experiments were performed using a Cytiva (formerly GE Healthcare) Biacore 8K equipped with a Series S Sensor Chip SA. The ligands were immobilized via a biotin-modified biotin acceptor peptide. USP7 Ligands were diluted in running buffer (HBS-P+2% DMSO; 10 mM HEPES, pH 7.4, 150 mM NaCl, 1 mM DTT, 0.05% P20, 2% DMSO) to 100 μg/mL and injected at […] until a density between 500-10,000 RU was reached on flow-cell two of each channel, and flow cell one was left blank to serve as a reference surface. Both surfaces were washed until a stable baseline was achieved then 30 startup cycles to condition the surface. To collect kinetic and steady-state binding data, the small molecule analytes were prepared in three-fold dilution series in HBS-P+2% DMSO running buffer. Analytes were injected over both flow cells at a flow rate of […] at 25° C. The complex was allowed to associate for 60 seconds and dissociate for 300 seconds. Data were collected at 10 Hz. The data were fit to a simple 1:1 interaction model global data analysis within Cytiva Biacore Insight Evaluation Software.

For test [2], the target named is USP7 (Homo sapiens, UniProt Q93009). The test can be described thus: Ub-Rho cleavage assay. The class given is biochemical. Conditions: Ub-Rho substrate, recombinant USP7; read-out: Ub (Rho) USP7.1 (IC50). The protocol:
All fluorescence measurements were performed on a Molecular Devices FlexStation3 with excitation at 480 nm and emission 540 nm, PMT Gain: Medium, Flash Number: 10. […] Assay buffer for all measurements was 50 mM HEPES, 100 mM NaCl, 0.5 mM EDTA, 1 mM TCEP, 0.1 mg/ml BSA, 0.01% Tween-20, pH 7.8. […] Serial dilutions were made with a Mosquito HTS (SPT Labtech) nanoliter liquid handler. 200 nL of each compound in duplicate or DMSO control were transferred to the assay plate. The first two columns served as positive controls. 9.8 μl per well of USP7 working solution was added to the assay plate. Compound+Protein was incubated for 25 min at 25° C. 10 uL of Ub-Rho substrate was added per well and incubated for an additional 15 min at 25° C. Fluorescence was then measured. Percent response relative to DMSO controls was calculated in GraphPad or Scinamic, and the data was fitted to a non-linear regression to determine IC50 values.

Where [3] appears, read: steady-state KD, read-out: SPR USP7 CD + UBL 1-5 (KD_ss).
Setting [4] is: kinetic KD, read-out: SPR USP7 CD + UBL 1-5 (KD_kinetic).

T1 sequence (Q93009 208-1102 limits assumed): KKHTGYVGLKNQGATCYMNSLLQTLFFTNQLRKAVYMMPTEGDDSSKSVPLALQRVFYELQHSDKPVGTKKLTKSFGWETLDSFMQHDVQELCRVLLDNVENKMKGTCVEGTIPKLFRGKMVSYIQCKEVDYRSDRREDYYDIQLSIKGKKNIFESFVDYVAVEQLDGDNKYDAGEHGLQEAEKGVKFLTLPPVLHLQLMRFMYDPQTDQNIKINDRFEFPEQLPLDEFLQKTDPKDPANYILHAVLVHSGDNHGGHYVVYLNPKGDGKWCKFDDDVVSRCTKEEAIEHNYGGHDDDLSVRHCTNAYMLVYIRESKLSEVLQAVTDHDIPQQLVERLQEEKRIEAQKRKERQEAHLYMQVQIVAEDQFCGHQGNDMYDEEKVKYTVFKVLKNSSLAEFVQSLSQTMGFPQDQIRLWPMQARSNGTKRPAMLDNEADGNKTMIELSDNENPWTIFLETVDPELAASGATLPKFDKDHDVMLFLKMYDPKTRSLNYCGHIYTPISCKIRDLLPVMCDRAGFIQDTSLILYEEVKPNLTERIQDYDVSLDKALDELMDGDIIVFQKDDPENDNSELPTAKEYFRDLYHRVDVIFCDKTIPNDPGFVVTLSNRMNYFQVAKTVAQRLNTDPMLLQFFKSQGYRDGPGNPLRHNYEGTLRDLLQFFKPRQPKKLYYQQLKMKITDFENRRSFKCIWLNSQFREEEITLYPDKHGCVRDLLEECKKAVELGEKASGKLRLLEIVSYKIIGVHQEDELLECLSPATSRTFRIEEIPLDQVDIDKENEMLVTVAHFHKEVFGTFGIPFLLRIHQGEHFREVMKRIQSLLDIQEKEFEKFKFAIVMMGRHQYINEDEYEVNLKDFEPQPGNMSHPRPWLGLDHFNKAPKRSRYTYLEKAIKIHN
Chain of USP7 (Q93009 whole entry): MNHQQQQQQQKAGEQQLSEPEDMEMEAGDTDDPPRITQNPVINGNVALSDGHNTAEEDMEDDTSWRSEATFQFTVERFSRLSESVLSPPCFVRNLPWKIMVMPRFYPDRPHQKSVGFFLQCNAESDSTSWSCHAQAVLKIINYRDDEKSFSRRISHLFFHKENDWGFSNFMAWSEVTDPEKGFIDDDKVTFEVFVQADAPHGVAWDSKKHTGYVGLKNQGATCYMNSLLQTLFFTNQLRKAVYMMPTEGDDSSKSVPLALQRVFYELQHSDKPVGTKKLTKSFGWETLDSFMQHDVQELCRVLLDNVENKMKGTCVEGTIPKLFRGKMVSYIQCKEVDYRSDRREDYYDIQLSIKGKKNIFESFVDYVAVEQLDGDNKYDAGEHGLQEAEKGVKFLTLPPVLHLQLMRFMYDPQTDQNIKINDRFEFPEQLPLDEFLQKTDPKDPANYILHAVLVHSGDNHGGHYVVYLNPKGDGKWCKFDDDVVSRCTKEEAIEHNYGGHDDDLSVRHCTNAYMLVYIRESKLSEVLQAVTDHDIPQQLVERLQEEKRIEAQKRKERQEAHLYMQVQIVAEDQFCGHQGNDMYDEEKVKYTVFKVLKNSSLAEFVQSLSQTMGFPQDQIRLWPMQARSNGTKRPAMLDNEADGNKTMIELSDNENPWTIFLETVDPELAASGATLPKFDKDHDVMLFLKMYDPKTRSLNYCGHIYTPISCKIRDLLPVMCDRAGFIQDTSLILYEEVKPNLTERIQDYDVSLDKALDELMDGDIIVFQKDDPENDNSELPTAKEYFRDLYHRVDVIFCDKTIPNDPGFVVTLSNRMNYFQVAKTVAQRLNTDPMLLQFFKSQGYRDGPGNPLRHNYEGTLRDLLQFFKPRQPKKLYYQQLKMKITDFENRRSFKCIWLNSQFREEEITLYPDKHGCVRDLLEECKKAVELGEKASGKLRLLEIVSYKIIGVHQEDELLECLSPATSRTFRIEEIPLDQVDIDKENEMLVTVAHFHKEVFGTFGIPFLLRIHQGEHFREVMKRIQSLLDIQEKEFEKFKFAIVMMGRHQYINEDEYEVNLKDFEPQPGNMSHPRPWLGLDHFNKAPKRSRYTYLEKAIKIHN

For the compound `NCc1cc(Nc2nc3ccc(NS(=O)(=O)c4cn5c(n4)CCC5)cc3s2)ncn1` [U100], the Kd in test [1] (setting [3]) fell in the range of 1 to 100 µM. The IC50 in test [2] is over 100 µM.

Take `CN(C)Cc1cc(C(=O)Nc2nc3ccc(NS(=O)(=O)c4cccs4)cc3s2)nn1C` [U101]: in test [1] (setting [3]), the Kd lay within 1 to 100 µM. Also, the IC50 in test [2] was over 100 µM.

As to `CN1CCCn2nc(C(=O)Nc3nc4ccc(NS(=O)(=O)c5cn6c(n5)CCC6)cc4s3)cc2C1` [U102], in test [1] (setting [3]), the Kd is 1 to 100 µM. Moreover, the IC50 in test [2] is over 100 µM.

As to `CN1CCCn2nc(C(=O)Nc3nc4ccc(NS(=O)(=O)c5cccnc5)cc4s3)cc2C1` [U103], the Kd in test [1] (setting [3]) lay within 1 to 100 µM. For the same compound, in test [2], the IC50 was over 100 µM.

Regarding `CN1CCCn2nc(C(=O)Nc3nc4ccc(NS(=O)(=O)c5ccccn5)cc4s3)cc2C1` [U104], the Kd in test [1] (setting [3]) fell in the range of 1 to 100 µM. Further, the IC50 in test [2] was over 100 µM.

Take `Cn1nc(C(=O)Nc2nc3ccc(NS(=O)(=O)c4cccs4)cc3s2)cc1CN1CCC(CO)CC1` [U105]: the Kd in test [1] (setting [3]) is 1 to 100 µM. For the same compound, in test [2], the IC50 was over 100 µM.

As for `CN1CCCn2nc(C(=O)Nc3nc4ccc(NS(=O)(=O)c5cnccn5)cc4s3)cc2C1` [U106], the Kd in test [1] (setting [3]) is over 100 µM. In addition, the IC50 in test [2] was over 100 µM.

Turning to `Cn1ccc(C(=O)Nc2nc3ccc(NS(=O)(=O)c4cccs4)cc3s2)n1` [U107], the Kd in test [1] (setting [3]) is 1 to 100 µM. Besides, the IC50 in test [2] was over 100 µM.

Regarding `CN1CCCn2nc(C(=O)Nc3nc4ccc(N(CCN)S(=O)(=O)c5cccs5)cc4s3)cc2C1` [U108], the Kd in test [1] (setting [3]) is over 100 µM. Also, in test [2], the IC50 was over 100 µM.

As for `CN1CCCn2nc(C(=O)Nc3nc4ccc(NS(=O)(=O)c5ccncc5)cc4s3)cc2C1` [U109], the Kd in test [1] (setting [3]) is over 100 µM. Besides, in test [2], the IC50 was over 100 µM.

Turning to `CN1CCCn2nc(C(=O)Nc3nc4ccc(NS(=O)(=O)c5cn6ccccc6n5)cc4s3)cc2C1` [U110], in test [1] (setting [3]), the Kd was in the range of 1 to 100 µM. Further, the IC50 in test [2] was over 100 µM.

Regarding `CN1CCCn2nc(C(=O)Nc3nc4ccc(N(C)S(=O)(=O)c5cccs5)cc4s3)cc2C1` [U111], in test [1] (setting [3]), the Kd is over 100 µM. In test [2], the IC50 was over 100 µM.

Regarding `NC1CCn2nc(C(=O)Nc3nc4ccc(NS(=O)(=O)c5cccs5)cc4s3)cc2C1` (centres unmarked) [U112], the Kd in test [1] (setting [3]) was 1 to 100 µM. Besides, the IC50 in test [2] was over 100 µM.

For `CN1CCCn2nc(C(=O)Nc3nc4ccc(N[S+]([O-])c5cccs5)cc4s3)cc2C1` (centres unmarked) [U113], the Kd in test [1] (setting [3]) fell in the range of 1 to 100 µM. Besides, the IC50 in test [2] is over 100 µM.

For the compound `CN1CCCn2nc(C(=O)Nc3nc4ccc(NCc5c[nH]cn5)cc4s3)cc2C1` [U114], the Kd in test [1] (setting [3]) is over 100 µM. The IC50 in test [2] is over 100 µM.

Take `CN1CCCn2nc(C(=O)Nc3nc4ccc(N(CC5CCNC5)S(=O)(=O)c5cccs5)cc4s3)cc2C1` (centres unmarked) [U115]: the Kd in test [1] (setting [3]) is 1 to 100 µM. The IC50 in test [2] was over 100 µM.

On to `CN1CCCn2nc(C(=O)Nc3nc4ccc(NS(=O)(=O)c5nnc[nH]5)cc4s3)cc2C1` [U116], for which, in test [1] (setting [3]), the Kd lay within 1 to 100 µM. The IC50 in test [2] is over 100 µM.

On to `CN1CC2CN(C(=O)Nc3nc4ccc(NS(=O)(=O)c5cccs5)cc4s3)CC2C1` (centres unmarked) [U117], for which, in test [1] (setting [3]), the Kd was 1 to 100 µM. The IC50 in test [2] is over 100 µM.

Turning to `O=C(Nc1nc2ccc(NS(=O)(=O)c3cccs3)cc2s1)c1ccn[nH]1` [U118], in test [1] (setting [3]), the Kd was in the range of 1 to 100 µM. Besides, the IC50 in test [2] is over 100 µM.

Consider `C#CCCN1CCCn2nc(C(=O)Nc3nc4ccc(NS(=O)(=O)c5cccs5)cc4s3)cc2C1` [U119], for which the Kd in test [1] (setting [3]) lay in the range of 1 to 100 µM. For the same compound, in test [2], the IC50 is over 100 µM.

In the case of `CN1CCCn2nc(C(=O)Nc3nc4ccc(N(C5CCNC5)S(=O)(=O)c5cccs5)cc4s3)cc2C1` (centres unmarked) [U120], the Kd in test [1] (setting [3]) was 1 to 100 µM. In addition, the 50% inhibitory concentration (IC50) in test [2] was over 100 µM.

As for `CN1CCCn2nc(C(=O)Nc3nc4ccc(NS(=O)(=O)c5nn6ccccc6c5Cl)cc4s3)cc2C1` [U121], the Kd in test [1] (setting [3]) fell in the range of 1 to 100 µM. For the same compound, the IC50 in test [2] was over 100 µM.

In the case of `CCC(=O)N1CCC(C(=O)Nc2nc3ccc(NS(=O)(=O)c4cccs4)cc3s2)C1` (centres unmarked) [U122], the Kd in test [1] (setting [3]) lay in the range of 1 to 100 µM. Further, the IC50 in test [2] was over 100 µM.

With `CN1CCN(C(=O)Nc2nc3ccc(NS(=O)(=O)c4cccs4)cc3s2)CC1=O` [U123], the Kd in test [1] (setting [3]) is over 100 µM. Further, the IC50 in test [2] is over 100 µM.

In the case of `CN1CCCn2nc(C(=O)Nc3nc4ccc(NS(=O)(=O)c5cccs5)cc4s3)nc2C1` [U124], the Kd in test [1] (setting [3]) was over 100 µM. The IC50 in test [2] is 1 to 100 µM.

Take `O=C(Nc1nc2ccc(NS(=O)(=O)c3cccs3)cc2s1)N1CCOCC1` [U126]: in test [1] (setting [3]), the Kd was 1 to 100 µM. Further, the IC50 in test [2] was over 100 µM.

On to `CN1CCCn2nc(C(=O)Nc3nc4ccc(S(=O)(=O)NC5CCNC5)cc4s3)cc2C1` (centres unmarked) [U127], for which the Kd in test [1] (setting [3]) fell in the range of 1 to 100 µM. The IC50 in test [2] is over 100 µM.

With `CN1CCCn2nc(C(=O)Nc3nc4ccc(NS(=O)(=O)C5CCNC5)cc4s3)cc2C1` (centres unmarked) [U128], the Kd in test [1] (setting [3]) was in the range of 1 to 100 µM. Besides, the IC50 in test [2] is over 100 µM.

As to `C=CC(=O)N1CCC(C(=O)Nc2nc3ccc(NS(=O)(=O)c4cccs4)cc3s2)C1` (centres unmarked) [U129], the Kd in test [1] (setting [3]) lay within 1 to 100 µM. Further, the concentration for half-maximal inhibition (IC50) in test [2] is over 100 µM.

Turning to `CN1CCCn2nc(C(=O)Nc3nc4ccc(NS(=O)(=O)c5cc6ccccn6n5)cc4s3)cc2C1` [U130], the Kd in test [1] (setting [3]) was in the range of 1 to 100 µM. The half-maximal inhibitory concentration (IC50) in test [2] is over 100 µM.

On to `C[C@H](CC(=O)N1CCC(O)(Cn2cnc3c(-c4ccc(CNC(=O)CCCCNC(=O)OC(C)(C)C)cc4)n(C)nc3c2=O)CC1)c1ccccc1` [U131], for which, in test [1] (setting [4]), the Kd was under 1 µM. In test [2], the IC50 is under 1 µM.

Turning to `C[C@H](CC(=O)N1CCC(O)(Cn2cnc3c(-c4ccc(CNC(=O)CCCCCCNC(=O)OC(C)(C)C)cc4)n(C)nc3c2=O)CC1)c1ccccc1` [U132], the Kd in test [1] (setting [4]) is under 1 µM. Further, the IC50 in test [2] was under 1 µM.

For `C[C@H](CC(=O)N1CCC(O)(Cn2cnc3c(-c4ccc(CNC(=O)CCCCCCCNC(=O)OC(C)(C)C)cc4)n(C)nc3c2=O)CC1)c1ccccc1` [U133], the Kd in test [1] (setting [4]) is under 1 µM. Moreover, the IC50 in test [2] is under 1 µM.

Regarding `C[C@H](CC(=O)N1CCC(O)(Cn2cnc3c(-c4ccc(CNC(=O)CCNC(=O)OC(C)(C)C)cc4)n(C)nc3c2=O)CC1)c1ccccc1` [U134], in test [1] (setting [4]), the Kd is under 1 µM. For the same compound, the IC50 in test [2] is under 1 µM.
